Laboratory results published in patent publication US10596172B2 (Celgene CAR LLC, priority 2008, dated 2020).
Like-named read-outs stand apart in the source and are kept apart here.

Experiments:
BTK [1] = target: T1, BTK (Homo sapiens (Human), UniProt Q06187); assay: Washout experiment with Ramos cells; type: cell-based; details: 100 nM compound 1 hour, then washout
Procedure: Ramos cells were serum starved for one hour in RPMI media +1% glutamine at 37° C. After starvation, Ramos cells were treated with 100 nM compound diluted in serum free RPMI media for 1 hour. After compound treatment, the media was removed and cells were washed with compound-free media. Subsequently, Ramos cells were washed every 2 hours and resuspended in fresh compound-free media. Cells were collected at specified timepoints, treated with 1 ug anti-human IgM (Southern Biotech cat #2022-01) for 10 minutes on ice to induce BCR signaling and then washed in PBS. Ramos cells were then lysed in Cell Extraction Buffer (Invitrogen FNN0011) supplemented with Roche complete protease inhibitor tablets (Roche 11697498001) and phosphatase inhibitors (Roche 04 906 837 001) and 18 ug total protein lysate was loaded in each lane. Inhibition of BTK kinase activity was assayed by measuring its substrate (PLCγ2) phosphorylation by western blot with phospho-specific antibodies from Cell Signaling Technologies cat #3871. The results of this experiment with compounds I-2, I-4 and I-7 are depicted in FIGS. 1, 2 and 3.

[2] = system: B cell lymphoma cell lines; assay: B cell lymphoma proliferation assay; type: cell-based
TEC kinase = TEC kinase (Homo sapiens (Human), UniProt P42680); assay: Mass spectrometry for TEC kinase (tryptic digest); type: binding; details: 3 hrs at 10x excess
Chain of TEC kinase (P42680 whole entry): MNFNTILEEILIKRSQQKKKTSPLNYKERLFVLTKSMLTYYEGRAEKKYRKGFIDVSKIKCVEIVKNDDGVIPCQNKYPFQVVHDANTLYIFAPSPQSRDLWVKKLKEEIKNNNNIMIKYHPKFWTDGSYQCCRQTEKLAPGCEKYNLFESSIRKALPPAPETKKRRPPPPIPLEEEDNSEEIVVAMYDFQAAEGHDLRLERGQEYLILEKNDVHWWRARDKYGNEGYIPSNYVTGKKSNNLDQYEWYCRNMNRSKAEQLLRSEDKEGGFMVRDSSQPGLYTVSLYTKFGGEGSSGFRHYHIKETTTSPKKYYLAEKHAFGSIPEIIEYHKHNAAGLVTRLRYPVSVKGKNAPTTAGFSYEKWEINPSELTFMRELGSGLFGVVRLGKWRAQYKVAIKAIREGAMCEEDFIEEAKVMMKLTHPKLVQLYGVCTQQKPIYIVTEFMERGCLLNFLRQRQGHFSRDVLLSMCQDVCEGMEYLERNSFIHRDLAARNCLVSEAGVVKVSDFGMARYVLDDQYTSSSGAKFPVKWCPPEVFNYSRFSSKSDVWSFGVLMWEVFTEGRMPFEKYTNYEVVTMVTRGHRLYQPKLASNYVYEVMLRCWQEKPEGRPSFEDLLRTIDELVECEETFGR
Procedure: (§1) TEC kinase (45 pmols; Invitrogen) was incubated with (I-2) (450 pmols) for 3 hrs at 10× excess prior to tryptic digestion. Iodoacetamide was used as the alkylating agent after compound incubation. […] For tryptic digests a 5 ul aliquot (7.5 pmols) was diluted with 15 ul of 0.1% TFA prior to micro C18 Zip Tipping directly onto the MALDI target using alpha cyano-4-hydroxy cinnamic acid as the matrix (5 mg/ml in 0.1% TFA:Acetonitrile 50:50).
As depicted in FIG. 6, the expected peptide ([…]) to be modified was immediately evident after reaction with I-2 (MI mass of 359.17 Da) at MH+ of 1294.72. The peptide was also quite evident in the control sample as modified by Iodacetamide at MH+ of 992.56. […] There was no evidence of other modified peptides.
For tryptic digests the instrument was set in Reflectron mode with a pulsed extraction setting of 2200. Calibration was done using the Laser Biolabs Pep Mix standard ([…], 1296.69, 1672.92, 2093.09, 2465.20). For CID/PSD analysis the peptide was selected using cursors to set ion gate timing and fragmentation occurred at a laser power about 20% higher and He was used as the collision gas for CID. Calibration for fragments was done using the P14R fragmentation calibration for the Curved field Reflectron.
as §1, with “(I-4)” for “(I-2)”
As depicted in FIG. 7, the expected peptide ([…]) to be modified was immediately evident at MH+ of 1355.72. This is the mass to be expected when compound I-4, with an adduct mass of 420.21, is added to the peptide mass of 935.51. The peptide was also quite evident in the control sample as modified by Iodacetamide at MH^+ of 992.56. […] There was no evidence of other modified peptides. […]

JAK3 [3] = target: T2, JAK3 (Homo sapiens (Human), UniProt P52333); assay: Omnia assay for potency assessment against the active form of JAK3; type: biochemical; details: read-out: JAK3 Inhibition
T2 sequence (P52333 whole entry): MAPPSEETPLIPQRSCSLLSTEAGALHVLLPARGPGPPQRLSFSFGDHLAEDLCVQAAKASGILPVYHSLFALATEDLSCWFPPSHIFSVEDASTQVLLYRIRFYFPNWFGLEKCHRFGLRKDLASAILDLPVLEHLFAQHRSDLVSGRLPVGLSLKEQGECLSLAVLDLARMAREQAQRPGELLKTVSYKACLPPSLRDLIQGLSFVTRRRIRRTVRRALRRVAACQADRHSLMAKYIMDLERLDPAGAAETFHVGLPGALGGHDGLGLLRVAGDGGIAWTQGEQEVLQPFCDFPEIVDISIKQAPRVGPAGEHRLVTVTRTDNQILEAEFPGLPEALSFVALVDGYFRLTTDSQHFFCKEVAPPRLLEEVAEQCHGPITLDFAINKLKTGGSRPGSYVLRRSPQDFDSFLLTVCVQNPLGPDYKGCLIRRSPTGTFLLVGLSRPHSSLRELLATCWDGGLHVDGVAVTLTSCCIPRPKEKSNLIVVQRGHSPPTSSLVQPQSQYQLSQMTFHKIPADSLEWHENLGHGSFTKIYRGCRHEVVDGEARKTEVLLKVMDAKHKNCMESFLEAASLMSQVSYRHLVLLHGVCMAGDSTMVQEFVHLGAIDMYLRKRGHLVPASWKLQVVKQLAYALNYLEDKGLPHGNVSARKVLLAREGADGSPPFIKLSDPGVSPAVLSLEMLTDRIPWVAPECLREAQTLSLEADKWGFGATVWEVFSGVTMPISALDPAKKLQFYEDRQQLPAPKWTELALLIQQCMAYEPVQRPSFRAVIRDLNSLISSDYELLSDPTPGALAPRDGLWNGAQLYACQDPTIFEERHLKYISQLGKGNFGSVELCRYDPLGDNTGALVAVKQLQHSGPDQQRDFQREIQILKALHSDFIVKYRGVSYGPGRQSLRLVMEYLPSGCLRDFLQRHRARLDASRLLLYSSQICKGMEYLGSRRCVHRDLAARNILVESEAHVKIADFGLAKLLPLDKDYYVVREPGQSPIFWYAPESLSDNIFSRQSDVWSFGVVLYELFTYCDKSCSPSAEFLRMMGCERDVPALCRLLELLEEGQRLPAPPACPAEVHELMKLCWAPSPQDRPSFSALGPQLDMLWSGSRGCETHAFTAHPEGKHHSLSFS

JAK3 [4] = target: T2, JAK3; assay: Mass spectrometry for Janus-3 kinase (JAK3); type: binding; details: 3 hrs at 10x excess, tryptic digest
Procedure: JAK3 kinase (33 pmols; Invitrogen) was incubated with (I-7) (327 pmols) for 3 hrs at 10× excess prior to tryptic digestion. Iodoacetamide was used as the alkylating agent after compound incubation. For tryptic digests a 5 ul aliquot (5.5 pmols) was diluted with 15 ul of 0.1% TFA prior to micro C18 Zip Tipping directly onto the MALDI target using alpha cyano-4-hydroxy cinnamic acid as the matrix (5 mg/ml in 0.1% TFA:Acetonitrile 50:50).
As depicted in FIG. 11, the expected peptide ([…]) to be modified was immediately evident as the largest peak at MH+ of 1725.88. This is the mass to be expected when compound I-7, with an adduct mass of 345.16, is added to the peptide mass of 1380.70. […] There was also evidence for a number of other modified peptides, however, their signals were low.
To further verify the presence of the modified peptides with compound I-7, the peptides at MH+ of 1725.88 and 1118.55 were subjected to PSD (MS/MS) analysis. A correlational analysis with the homo sapien database identified the correct peptides as being modified by I-7.
For tryptic digests the instrument was set in Reflectron mode with a pulsed extraction setting of 2200. Calibration was done using the Laser Biolabs Pep Mix standard ([…], 1296.69, 1672.92, 2093.09, 2465.20). […]

Erbb4 kinase domain = Erbb4 kinase domain (Homo sapiens (Human), UniProt Q15303); assay: Mass spectrometry for ERBB4; type: binding; details: 60 minutes at 10-fold excess of compound
Chain of Erbb4 kinase domain (Q15303 718-985): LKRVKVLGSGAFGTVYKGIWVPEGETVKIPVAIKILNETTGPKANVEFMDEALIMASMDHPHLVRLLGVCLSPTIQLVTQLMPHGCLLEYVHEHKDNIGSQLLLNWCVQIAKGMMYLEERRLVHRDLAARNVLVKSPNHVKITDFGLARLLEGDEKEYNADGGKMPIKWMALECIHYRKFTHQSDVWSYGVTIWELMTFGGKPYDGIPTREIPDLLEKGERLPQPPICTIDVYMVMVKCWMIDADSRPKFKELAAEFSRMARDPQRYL
Procedure: Erbb4 kinase domain (Upstate) was incubated with compound for 60 minutes at 10-fold excess of compound I-4 and I-11 to protein. 1 μl aliquots of the samples (total volume of 4.24 ul) were diluted with 10 μl of 0.1% TFA prior to micro C4 ZipTipping directly onto the MALDI target using Sinapinic acid as the desorption matrix (10 mg/ml in 0.1% TFA:Acetonitrile 50:50). For intact protein mass measurement the instrument was set in Linear mode using a pulsed extraction setting of 16,952 for the myoglobin standard used to calibrate the instrument (Shimadzu Axima TOF^2).
Intact ErbB4 protein occurs at MH+ of 35850 with corresponding sinapinic (matrix) adducts occurring about 200 Da higher. A stoichiometric incorporation of the test compound (I-4 and I-11) (Mw of 410 Da) produced a new mass peak which is approximately 410 Da higher (MH+ of 36260).

EGFR-WT = EGFR-WT (Homo sapiens (Human), UniProt P00533); assay: Omnia assay for potency assessment against EGFR (WT); type: biochemical; details: wild-type EGFR; read-out: EGFR Wild Type Inhibition
Chain of EGFR-WT (P00533 25-1210): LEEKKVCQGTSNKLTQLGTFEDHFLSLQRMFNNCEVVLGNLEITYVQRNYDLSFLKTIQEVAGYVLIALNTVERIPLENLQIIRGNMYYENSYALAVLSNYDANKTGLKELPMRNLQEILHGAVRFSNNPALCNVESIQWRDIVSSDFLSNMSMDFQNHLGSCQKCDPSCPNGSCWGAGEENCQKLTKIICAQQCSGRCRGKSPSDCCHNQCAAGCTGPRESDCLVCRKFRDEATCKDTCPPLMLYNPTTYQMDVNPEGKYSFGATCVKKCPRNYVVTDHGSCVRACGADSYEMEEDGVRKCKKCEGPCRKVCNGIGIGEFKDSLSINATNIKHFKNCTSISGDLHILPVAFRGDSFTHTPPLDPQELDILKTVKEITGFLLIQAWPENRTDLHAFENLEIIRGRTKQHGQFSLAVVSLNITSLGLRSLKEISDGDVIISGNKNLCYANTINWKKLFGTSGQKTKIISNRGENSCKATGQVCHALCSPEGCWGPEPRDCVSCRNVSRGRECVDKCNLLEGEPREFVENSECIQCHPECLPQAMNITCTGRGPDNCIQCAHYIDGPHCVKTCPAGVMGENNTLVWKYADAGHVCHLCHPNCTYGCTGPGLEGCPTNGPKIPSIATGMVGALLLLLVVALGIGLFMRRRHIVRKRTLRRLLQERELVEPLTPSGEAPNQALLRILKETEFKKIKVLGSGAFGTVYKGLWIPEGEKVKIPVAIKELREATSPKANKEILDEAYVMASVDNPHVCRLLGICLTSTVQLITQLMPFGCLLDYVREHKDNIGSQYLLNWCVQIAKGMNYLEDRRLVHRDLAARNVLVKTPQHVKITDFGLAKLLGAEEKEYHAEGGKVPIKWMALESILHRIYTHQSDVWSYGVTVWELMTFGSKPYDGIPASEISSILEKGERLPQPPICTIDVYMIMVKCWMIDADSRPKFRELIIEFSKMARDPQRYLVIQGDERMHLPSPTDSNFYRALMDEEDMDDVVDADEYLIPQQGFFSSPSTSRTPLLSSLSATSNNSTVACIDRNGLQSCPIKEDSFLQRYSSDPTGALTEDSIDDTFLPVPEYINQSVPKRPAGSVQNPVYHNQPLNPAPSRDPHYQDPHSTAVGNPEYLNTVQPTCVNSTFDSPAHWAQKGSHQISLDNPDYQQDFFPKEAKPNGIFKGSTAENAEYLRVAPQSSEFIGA

BTK [5] = target: T1, BTK; assay: Omnia assay for potency assessment against BTK; type: biochemical; details: [BTK]=5 nm; read-out: BTK Inhibition
Procedure: Omnia Assay Protocol for Potency Assessment Against BTK
The modified BTK-optimized reagent conditions for the above protocol are:
[BTK]=5 nm, [ATP]=40 mM, [Y5-Sox]=10 mM (ATP KMapp˜36 mM).

ITK = ITK (Homo sapiens (Human), UniProt Q08881); assay: Omnia assay for potency assessment against active forms of ITK kinase; type: biochemical; details: [ITK]=10 nM, [ATP]=25 μM, [Y6-Sox]=10 μM; read-out: ITK Inhibition
Chain of ITK (Q08881 whole entry): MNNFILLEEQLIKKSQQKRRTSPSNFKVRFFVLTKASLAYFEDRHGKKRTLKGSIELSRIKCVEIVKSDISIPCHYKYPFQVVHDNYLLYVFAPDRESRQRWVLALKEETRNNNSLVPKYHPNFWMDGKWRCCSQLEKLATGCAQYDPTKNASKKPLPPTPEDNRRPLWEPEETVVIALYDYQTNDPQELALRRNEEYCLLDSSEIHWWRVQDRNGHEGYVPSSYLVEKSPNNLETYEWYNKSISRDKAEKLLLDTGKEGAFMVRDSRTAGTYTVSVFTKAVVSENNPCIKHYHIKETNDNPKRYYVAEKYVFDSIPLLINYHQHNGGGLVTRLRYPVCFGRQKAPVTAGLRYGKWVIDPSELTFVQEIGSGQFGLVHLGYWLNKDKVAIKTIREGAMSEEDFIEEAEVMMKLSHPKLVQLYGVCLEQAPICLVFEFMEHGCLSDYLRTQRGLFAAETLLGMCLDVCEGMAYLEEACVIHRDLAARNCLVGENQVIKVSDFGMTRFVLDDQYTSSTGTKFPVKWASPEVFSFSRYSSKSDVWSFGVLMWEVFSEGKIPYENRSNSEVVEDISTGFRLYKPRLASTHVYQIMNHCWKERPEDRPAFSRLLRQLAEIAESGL
Procedure: [ITK]=10 nM, [ATP]=25 μM, [Y6-Sox]=10 μM (ATP KMapp=33 μM).

BTK [6] = target: T1, BTK; assay: BTK Ramos cellular assay (phosphorylation of BTK substrate PLCγ2); type: cell-based; details: Ramos cells, compound 1 hour, anti-human IgM stimulation, read-out: BTK Inhibition (BTK Ramos Cellular Inhibition Data)
Procedure: Ramos cells were grown in suspension in T225 flasks, spun down, resuspended in 50 ml serum-free media and incubated for 1 hour. […] Ramos cells were incubated with compound for 1 hour, washed again and resuspended in 100 ul serum-free media. Cells were then stimulated with 1 μg of goat F(ab′)2 Anti-Human IgM and incubated on ice for 10 minutes to activate B cell receptor signaling pathways. After 10 minutes, the cells were washed once with PBS and then lysed on ice with Invitrogen Cell Extraction buffer. 16 μg total protein from lysates were loaded on gel and blots were probed for phosphorylation of the BTK substrate PLCγ2.

[7] = Homo sapiens, DOHH-2, DOHH2 B cell lymphoma cell line, read-out: EC50 (μM) DOHH2

T1 sequence (Q06187 whole entry): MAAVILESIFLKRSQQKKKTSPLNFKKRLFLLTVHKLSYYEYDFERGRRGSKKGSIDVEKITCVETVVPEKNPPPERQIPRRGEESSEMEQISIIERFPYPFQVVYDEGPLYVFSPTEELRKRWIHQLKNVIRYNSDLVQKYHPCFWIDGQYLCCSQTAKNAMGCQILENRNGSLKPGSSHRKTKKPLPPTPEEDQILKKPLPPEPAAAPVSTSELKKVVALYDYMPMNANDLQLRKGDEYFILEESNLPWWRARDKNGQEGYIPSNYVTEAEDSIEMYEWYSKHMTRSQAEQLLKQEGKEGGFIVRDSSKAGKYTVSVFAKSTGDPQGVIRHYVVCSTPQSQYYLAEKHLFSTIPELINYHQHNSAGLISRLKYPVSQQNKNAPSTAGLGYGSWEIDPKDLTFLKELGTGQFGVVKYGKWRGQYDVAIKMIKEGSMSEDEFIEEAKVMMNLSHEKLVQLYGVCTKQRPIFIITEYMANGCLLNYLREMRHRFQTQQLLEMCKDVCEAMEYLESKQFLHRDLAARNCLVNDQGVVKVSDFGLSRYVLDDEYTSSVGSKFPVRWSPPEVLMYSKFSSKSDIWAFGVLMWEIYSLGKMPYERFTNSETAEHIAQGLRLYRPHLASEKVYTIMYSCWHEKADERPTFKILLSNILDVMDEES

Compound | BTK Inhibition Type (BTK [1]) | EC50 [2, 7] [µM] | covalent modification of TEC kinase peptide GCLLNFLR (Cys449) by mass spectrometry (TEC kinase) | IC50 (JAK3 [3]) [nM] | covalent modification of JAK3 peptide LVMEYLPSGCLR (Cys909) by mass spectrometry (JAK3 [4]) | covalent modification of ErbB4 by mass spectrometry (Erbb4 kinase domain) | IC50 (EGFR-WT) [nM] | IC50 (BTK [5]) [nM] | IC50 (ITK) [nM] | IC50 (BTK [6]) [nM] | EC50 ([2]; DHL4 B cell lymphoma cell line, read-out: EC50 (μM) DHL4) [µM] | EC50 ([2]; Homo sapiens, WSUDLCL2, WSU-DLCL2 B cell lymphoma cell line, read-out: EC50 (μM) WSU-DLCL2) [µM]
C=CC(=O)Nc1cccc(Nc2ncc(C)c(Nc3cccc(C)c3)n2)c1 [Compound I-2, N-(3-(5-methyl-4-(m-tolylamino)pyrimidin-2-ylamino)phenyl)acrylamide] | irreversible | 0.1 to 1 | reaction was complete | < 10 |  |  |  |  |  |  |  | 
Cc1cnc(Nc2cccc(S(N)(=O)=O)c2)nc1Nc1ccc2c(c1)CCN(C(=O)CCl)C2 [Compound I-11, 3-(4-(2-(2-chloroacetyl)-1,2,3,4-tetrahydroisoquinolin-6-ylamino)-5-methylpyrimidin-2-ylamino)benzenesulfonamide] |  |  |  | < 10 | measurable modification | covalent modification |  |  |  |  |  | 
C=CC(=O)Nc1cccc(Oc2nc(Nc3cccc(OC)c3)ncc2C(=O)NC2CC2)c1 [Compound I-177, 4-(3-acrylamidophenoxy)-2-(3-methoxyphenylamino)-pyrimidine-5-carboxylic Acid Cyclopropylamide] |  |  |  |  |  |  | < 10 | < 10 | 10 to 100 | 100 to 1000 |  | 
C=CC(=O)Nc1cccc(Oc2nc(Nc3cccc(OC)c3)ncc2C(N)=O)c1 [Compound I-178, 4-(3-acrylamidophenoxy)-2-(3-methoxyphenylamino)pyrimidine-5-carboxylic Acid Amide] |  | 1 to 10 |  |  |  |  | < 10 | < 10 | 10 to 100 | 10 to 100 | > 10 | > 10
C=CC(=O)N1CCC[C@@H](Oc2nc(Nc3ccc(OC)nc3)ncc2F)C1 [Compound I-180, (R)-1-(3-(5-fluoro-2-(6-methoxypyridin-3-ylamino)pyrimidin-4-yloxy)piperidin-1-yl)prop-2-en-1-one] |  |  |  |  |  |  | 100 to 1000 | < 10 | 100 to 1000 | 100 to 1000 |  | 
